{"source": "paper PMC12460146", "about": "“Impact of metabolic enzyme activity variability on dabrafenib disposition” (Frontiers in Pharmacology, 2025)", "note": "Structures can show the parent of a compound that is named as a salt."}
{"test_system": "not given", "test": "not given", "design": "method as in Puszkiel et al., 2019; Balakirouchenane et al., 2021", "conditions": "ref Puszkiel et al., 2019; Balakirouchenane et al., 2021; cited from earlier work", "units": {"increase of dabrafenib Cmax on ketoconazole coadministration": "%", "increase of dabrafenib area under curve (AUC) on ketoconazole coadministration": "%"}}
{"molecule": "CC(=O)N1CCN(c2ccc(OCC3COC(Cn4ccnc4)(c4ccc(Cl)cc4Cl)O3)cc2)CC1", "note": "(centres unmarked) [ketoconazole]", "increase of dabrafenib Cmax on ketoconazole coadministration": 33, "increase of dabrafenib area under curve (AUC) on ketoconazole coadministration": 71}
{"test_system": "rat liver microsomes (RLM)", "test": "Drug interaction screening of 48 drugs on dabrafenib metabolism in RLM", "format": "in vitro ADME", "conditions": "100 µM", "protocol": "(§1) The 200 µL incubation system contained 0.1 M Tris-HCl (pH = 7.6), 0.5 mg/mL RLM or HLM, 1 mM NADPH, and dabrafenib. After pre-incubation (37 °C, 5 min), reactions were initiated by adding 1 mM NADPH and terminated after 40 min with 300 µL ice-cold acetonitrile. Carbamazepine (100 ng/mL) was added as the IS. Samples were vortex-mixed (2 min), centrifuged (17,000 × g, 10 min, 4 °C), and supernatants analyzed by UPLC-MS/MS. Hydroxy-dabrafenib concentrations were quantified via UPLC-MS/MS. Reaction velocity (V) was calculated as hydroxy-dabrafenib formation rate (pmoL/min/µg protein).\n(§2) For drug interaction screening, inhibitors (100 µM final concentration) were screened in the standard incubation system.\n(§3) The concentrations of dabrafenib and hydroxy-dabrafenib were quantified by UPLC-MS/MS. Chromatographic separation was performed on a Waters Acquity UPLC BEH C18 column (2.1 mm × 50 mm, 1.7 µm particle size) maintained at 40 °C. […] Total run time was 2 min. Detection employed a Waters Xevo TQS triple quadrupole mass spectrometer (Milford, MA, United States) operated in positive-ion multiple reaction monitoring mode."}
{"molecule": "CNCC[C@H](Oc1cccc2ccccc12)c1cccs1", "note": "[Duloxetine]", "Relative activity (% of control)": "40.82% ± 0.01"}
{"molecule": "Troagliptin succinate", "Relative activity (% of control)": "117.88% ± 0.02"}
{"test_system": "rat liver microsomes (RLM)", "test": "Drug interaction screening of 48 drugs on dabrafenib metabolism in RLM", "format": "in vitro ADME", "conditions": "RLM; inhibitor 100 µM; dabrafenib at RLM Km concentration", "protocol": "as §1, §2, §3", "units": {"inhibition of dabrafenib metabolism": "%"}}
{"molecule": "O=c1ccc2ccc(OCCCCN3CCN(c4cccc5sccc45)CC3)cc2[nH]1", "note": "[Brexpiprazole]", "inhibition of dabrafenib metabolism": "> 70"}
{"molecule": "CNCCC(Oc1ccc(C(F)(F)F)cc1)c1ccccc1", "note": "(centres unmarked) [Fluoxetine]", "inhibition of dabrafenib metabolism": "> 70"}
{"molecule": "CCCCc1oc2ccc(NS(C)(=O)=O)cc2c1C(=O)c1ccc(OCCCN(CCCC)CCCC)cc1", "note": "[Dronedarone hydrochloride]", "inhibition of dabrafenib metabolism": "> 70"}
{"molecule": "Cc1ccc(Sc2ccccc2N2CCNCC2)c(C)c1", "note": "[Vortioxetine]", "inhibition of dabrafenib metabolism": "> 70"}
{"molecule": "Cc1c(OCC(F)(F)F)ccnc1C[S+]([O-])c1nc2ccccc2[nH]1", "note": "(centres unmarked) [Lansoprazole]", "inhibition of dabrafenib metabolism": "> 70"}
{"test_system": "rat liver microsomes (RLM)", "test": "Drug interaction screening of 48 drugs on dabrafenib metabolism in RLM", "format": "in vitro ADME", "conditions": "RLM; inhibitor 100 µM; dabrafenib at RLM Km concentration; hydroxy-dabrafenib formation", "protocol": "as §1, §2, §3"}
{"molecule": "COc1ccc2c(c1)c(CC(=O)O)c(C)n2C(=O)c1ccc(Cl)cc1", "note": "[Indomethacin]", "Relative activity (% of control)": "60.51% ± 0.004"}
{"molecule": "CN/C(=N/CCSCc1nc[nH]c1C)NC#N", "note": "[Cimetidine]", "Relative activity (% of control)": "84.61% ± 0.03"}
{"molecule": "CN[C@H]1CC[C@@H](c2ccc(Cl)c(Cl)c2)c2ccccc21", "note": "[Sertraline]", "Relative activity (% of control)": "29.92% ± 0.05"}
{"molecule": "Cc1cnc(NC(=O)C2=C(O)c3ccccc3S(=O)(=O)N2C)s1", "note": "[Meloxicam sodium]", "Relative activity (% of control)": "61.62% ± 0.06"}
{"molecule": "O=c1n(CCCN2CCN(c3cccc(Cl)c3)CC2)nc2ccccn12", "note": "[Trazodone]", "Relative activity (% of control)": "49.14% ± 0.01"}
{"molecule": "Cc1ccc(-c2cc(C(F)(F)F)nn2-c2ccc(S(N)(=O)=O)cc2)cc1", "note": "[Celecoxib]", "Relative activity (% of control)": "33.72% ± 0.13"}
{"molecule": "CN(C)CCCN1c2ccccc2CCc2ccc(Cl)cc21", "note": "[Clomipramine]", "Relative activity (% of control)": "54.39% ± 0.08"}
{"molecule": "CN(C)CCOC(c1ccccc1)c1ccccc1", "note": "[Diphenhydramine hydrochloride]", "Relative activity (% of control)": "90.45% ± 0.11"}
{"molecule": "COc1ccc(C(CN(C)C)C2(O)CCCCC2)cc1", "note": "(centres unmarked) [Venlafaxine]", "Relative activity (% of control)": "54.22% ± 0.004"}
{"molecule": "CC(C)[C@H]1CC[C@H](C(=O)N[C@H](Cc2ccccc2)C(=O)O)CC1", "note": "[Nateglinide]", "Relative activity (% of control)": "108.55% ± 0.06"}
{"molecule": "O=C(O)Cc1ccccc1Nc1c(Cl)cccc1Cl", "note": "[Diclofenac sodium]", "Relative activity (% of control)": "69.82% ± 0.04"}
{"molecule": "O=c1ccc2ccc(OCCCCN3CCN(c4cccc5sccc45)CC3)cc2[nH]1", "note": "[Brexpiprazole]", "Relative activity (% of control)": "29.48% ± 0.05"}
{"molecule": "C[C@]12CCC(=O)C=C1CC[C@@H]1[C@@H]2[C@@H](O)C[C@@]2(C)[C@H]1CC[C@]2(O)C(=O)CO", "note": "[Hydrocortisone]", "Relative activity (% of control)": "70.48% ± 0.08"}
{"molecule": "COCCc1ccc(OCC(O)CNC(C)C)cc1", "note": "(centres unmarked) [Metoprolol Tartrate]", "Relative activity (% of control)": "59.44% ± 0.08"}
{"molecule": "CNCCC(Oc1ccc(C(F)(F)F)cc1)c1ccccc1", "note": "(centres unmarked) [Fluoxetine]", "Relative activity (% of control)": "18.63% ±0.04"}
{"molecule": "CCC(=O)NS(=O)(=O)c1ccc(-c2c(-c3ccccc3)noc2C)cc1", "note": "[Parecoxib]", "Relative activity (% of control)": "72.34% ± 0.11"}
{"molecule": "CCC1=C(C)CN(C(=O)NCCc2ccc(S(=O)(=O)NC(=O)N[C@H]3CC[C@H](C)CC3)cc2)C1=O", "note": "[Glimepiride]", "Relative activity (% of control)": "100.17% ± 0.01"}
{"molecule": "CN1[C@@H]2CC[C@H]1C[C@@H](OC(=O)c1c[nH]c3ccccc13)C2", "note": "[Tropisetron]", "Relative activity (% of control)": "84.28% ± 0.07"}
{"molecule": "COc1ccc2c(c1)[C@]13CCCC[C@@H]1[C@H](C2)N(C)CC3", "note": "[Dextromethorphan hydrobromide]", "Relative activity (% of control)": "79.28% ± 0.03"}
{"molecule": "CCCCc1oc2ccc(NS(C)(=O)=O)cc2c1C(=O)c1ccc(OCCCN(CCCC)CCCC)cc1", "note": "[Dronedarone hydrochloride]", "Relative activity (% of control)": "20.07% ± 0.02"}
{"molecule": "CC(NC(C)(C)C)C(=O)c1cccc(Cl)c1", "note": "(centres unmarked) [Bupropion]", "Relative activity (% of control)": "30.23% ± 0.06"}
{"molecule": "CN1CCN2c3ncccc3Cc3ccccc3C2C1", "note": "(centres unmarked) [Mirtazapine]", "Relative activity (% of control)": "50.53% ±0.001"}
{"molecule": "Cc1cnc(C(=O)NCCc2ccc(S(=O)(=O)NC(=O)NC3CCCCC3)cc2)cn1", "note": "[Glipizide]", "Relative activity (% of control)": "106.96% ± 0.06"}
{"molecule": "CN1C(C(=O)Nc2ccccn2)=C(O)c2sc(Cl)cc2S1(=O)=O", "note": "[Lornoxicam]", "Relative activity (% of control)": "65.67% ± 0.04"}
{"molecule": "CN1CCOC(c2ccccc2)c2ccccc2C1", "note": "(centres unmarked) [Nefopam hydrochloride]", "Relative activity (% of control)": "52.87% ± 0.15"}
{"molecule": "COc1ccc2cccc(CCNC(C)=O)c2c1", "note": "[Agomelatine]", "Relative activity (% of control)": "36.20% ± 0.08"}
{"molecule": "CC(=O)Nc1ccc(O)cc1", "note": "[Acetaminophen]", "Relative activity (% of control)": "90.08% ± 0.04"}
{"molecule": "CN(C)C(=N)N=C(N)N", "note": "[Metformin hydrochloride]", "Relative activity (% of control)": "109.07% ± 0.01"}
{"molecule": "CN(CCOc1ccc(CC2SC(=O)NC2=O)cc1)c1ccccn1", "note": "(centres unmarked) [Rosiglitazone maleate]", "Relative activity (% of control)": "64.26% ± 0.004"}
{"molecule": "C[C@@H]1C[C@H]2[C@@H]3CCC4=CC(=O)C=C[C@]4(C)[C@@]3(F)[C@@H](O)C[C@]2(C)[C@@]1(O)C(=O)CO", "note": "[Dexamethasone]", "Relative activity (% of control)": "59.84% ± 0.07"}
{"molecule": "COc1ccc(Cl)cc1C(=O)NCCc1ccc(S(=O)(=O)NC(=O)NC2CCCCC2)cc1", "note": "[Glybenzcyclamide]", "Relative activity (% of control)": "78.13% ± 0.03"}
{"molecule": "Cc1ccc(Sc2ccccc2N2CCNCC2)c(C)c1", "note": "[Vortioxetine]", "Relative activity (% of control)": "11.14% ±0.001"}
{"molecule": "CN(C)CCC=C1c2ccccc2CCc2ccccc21", "note": "[Amitriptyline]", "Relative activity (% of control)": "38.88% ± 0.04"}
{"molecule": "COc1ccc2[nH]c([S+]([O-])Cc3ncc(C)c(OC)c3C)nc2c1", "note": "(centres unmarked) [Omeprazole]", "Relative activity (% of control)": "46.24% ±0.04"}
{"molecule": "CC(C(=O)O)c1ccc(CC2CCCC2=O)cc1", "note": "(centres unmarked) [Loxoprofen]", "Relative activity (% of control)": "57.60% ± 0.04"}
{"molecule": "CN(C)CCCC1(c2ccc(F)cc2)OCc2cc(C#N)ccc21", "note": "(centres unmarked) [Citalopram]", "Relative activity (% of control)": "59.29% ± 0.07"}
{"molecule": "C=C[C@H]1C[N@@]2CC[C@H]1C[C@@H]2[C@@H](O)c1ccnc2ccc(OC)cc12", "note": "[Quinidine]", "Relative activity (% of control)": "60.50% ± 0.14"}
{"molecule": "Cc1nc2n(c(=O)c1CCN1CCC(c3noc4cc(F)ccc34)CC1)CCCC2O", "note": "(centres unmarked) [Paliperidone]", "Relative activity (% of control)": "101.95% ± 0.03"}
{"molecule": "CC(C(=O)O)c1ccc(-c2ccccc2)c(F)c1", "note": "(centres unmarked) [Flurbiprofen]", "Relative activity (% of control)": "59.91% ± 0.03"}
{"molecule": "Cc1c(OCC(F)(F)F)ccnc1C[S+]([O-])c1nc2ccccc2[nH]1", "note": "(centres unmarked) [Lansoprazole]", "Relative activity (% of control)": "27.68% ± 0.01"}
{"molecule": "N#C[C@@H]1C[C@@H]2C[C@@H]2N1C(=O)[C@@H](N)C12CC3CC(CC(O)(C3)C1)C2", "note": "[Saxagliptin hydrochloride]", "Relative activity (% of control)": "114.45% ± 0.02"}
